Results from PubChem BioAssay (NCI).
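Compound exposure: 48 hours, 5 concentrations, 96-well plates. GI50 is the concentration that inhibits growth by half. TGI is the concentration that stops growth completely.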

Assays:
Assay in all cases: inhibition of tumour cell growth, NCI panel, 48 h
MOLT-4 leukemia = tested on: MOLT-4 leukemia
NCI-H226 lung = tested on: NCI-H226 lung
NCI-H23 lung = tested on: NCI-H23 lung
NCI-H460 lung = tested on: NCI-H460 lung
NCI/ADR-RES ovarian = tested on: NCI/ADR-RES ovarian
OVCAR-3 ovarian = tested on: OVCAR-3 ovarian
OVCAR-4 ovarian = tested on: OVCAR-4 ovarian
OVCAR-5 ovarian = tested on: OVCAR-5 ovarian
OVCAR-8 ovarian = tested on: OVCAR-8 ovarian
PC-3 prostate = tested on: PC-3 prostate
RPMI-8226 leukemia = tested on: RPMI-8226 leukemia
SF-268 CNS = tested on: SF-268 CNS
SF-295 CNS = tested on: SF-295 CNS
SF-539 CNS = tested on: SF-539 CNS
SK-MEL-28 melanoma = tested on: SK-MEL-28 melanoma
SK-MEL-5 melanoma = tested on: SK-MEL-5 melanoma
SK-OV-3 ovarian = tested on: SK-OV-3 ovarian
SN12C renal = tested on: SN12C renal
SNB-19 CNS = tested on: SNB-19 CNS
SNB-75 CNS = tested on: SNB-75 CNS
SR leukemia = tested on: SR leukemia
SW-620 colon = tested on: SW-620 colon
T-47D breast = tested on: T-47D breast
TK-10 renal = tested on: TK-10 renal
U251 CNS = tested on: U251 CNS
UACC-257 melanoma = tested on: UACC-257 melanoma
UACC-62 melanoma = tested on: UACC-62 melanoma

## O=C(COc1cccc(/C=C2/Oc3ccccc3C2=O)c1)Nc1nccs1
MOLT-4 leukemia
  TGI: 31.4 µM
NCI-H226 lung
  GI50: 22.9 µM
  TGI: 67.9 µM
NCI-H23 lung
  GI50: 24.8 µM
  TGI: > 100 µM
NCI-H460 lung
  GI50: 31.6 µM
  TGI: > 100 µM
NCI/ADR-RES ovarian
  GI50: 30 µM
  TGI: > 100 µM
OVCAR-3 ovarian
  GI50: 14.6 µM
  TGI: 38.8 µM
OVCAR-4 ovarian
  GI50: 19.5 µM
  TGI: 61.8 µM
OVCAR-5 ovarian
  GI50: 44 µM
  TGI: > 100 µM
OVCAR-8 ovarian
  GI50: 16.5 µM
  TGI: 50.1 µM
PC-3 prostate
  GI50: 15.7 µM
  TGI: 58.1 µM
RPMI-8226 leukemia
  GI50: 4.28 µM
  TGI: 23.1 µM
SF-268 CNS
  GI50: 6.23 µM
  TGI: 26.6 µM
SF-295 CNS
  GI50: 36.4 µM
  TGI: > 100 µM
SF-539 CNS
  GI50: 17.1 µM
  TGI: 31.9 µM
SK-MEL-28 melanoma
  GI50: 28.9 µM
  TGI: > 100 µM
SK-MEL-5 melanoma
  GI50: 16.4 µM
  TGI: 35.2 µM
SK-OV-3 ovarian
  GI50: 48.6 µM
  TGI: > 100 µM
SN12C renal
  GI50: 22.4 µM
  TGI: > 100 µM
SNB-19 CNS
  GI50: 25.4 µM
  TGI: > 100 µM
SNB-75 CNS
  GI50: 17.1 µM
  TGI: 58.1 µM
SR leukemia
  GI50: 4.09 µM
  TGI: 15.9 µM
SW-620 colon
  GI50: 27.4 µM
  TGI: > 100 µM
T-47D breast
  GI50: 16.8 µM
  TGI: 58.5 µM
TK-10 renal
  GI50: 15.9 µM
  TGI: 68.7 µM
U251 CNS
  GI50: 20.8 µM
  TGI: > 100 µM
UACC-257 melanoma
  GI50: 20.7 µM
  TGI: 56.3 µM
UACC-62 melanoma
  GI50: 25.6 µM
  TGI: 95.9 µM
